Entries after “also recorded” stand apart in the source; their conditions may differ.
Legend:
Format in all cases: cell-based, Saccharomyces cerevisiae
[1] = tested on: RE700A i PCDR1-HXT7 (IT[CDR1]); experiment: Growth inhibition of IT[CDR1] by 2-DG; conditions: 20 h 28° C., maltose, regarding growth in the absence of 2-DG
Method: FIG. 7: Growth inhibition of RE700A and IT[CDR1] by 2-DG. RE700A and IT[CDR1] were incubated for 20 h at 28° C. with maltose (2% (w/v)) as the sole carbon source and increasing 2-DG concentrations as indicated. The optical density was measured at 600 nm every 15 minutes and the integral under the growth curve was calculated. Inhibition of growth is shown in percent regarding growth in the absence of 2-DG. Growth of IT[CDR1] was inhibited by 45% at a 2-DG concentration of 0.01% (w/v), by 91% at a 2-DG concentration of 0.03% (w/v), by 92% at a 2-DG concentration of 0.05% (w/v), by 92% at a 2-DG concentration of 0.1% (w/v), by 94% at a 2-DG concentration of 1% (w/v), by 95% at a 2-DG concentration of 2% (w/v) and by 95% at a 2-DG concentration of 3% (w/v).
(3) Integrated screening system for inhibitors of PCDR1: S. cerevisiae strain RE700A was genetically modified as described in Example 1 and 2 to yield strain IT[CDR1], chromosomally expressing HXT7 under the control of the promoter of CDR1 (PCDR1) (for the complete genotype see Table 1). The inhibition of growth of IT[CDR1] by 2-DG was tested. The growth of this strain was inhibited by more than 90% at a 2-DG concentration of 0.03% (w/v) (FIG. 7)

[2] = tested on: RE700A Δpdr1,pdr3 tok1::PPDR5-HXT7; experiment: Growth inhibition of RE700A Δpdr1,pdr3 tok1::PPDR5-HXT7 by 2-DG; conditions: RE700A Δpdr1,pdr3 tok1::PPDR5-HXT7, up to a 2-DG concentration of 0.03% (w/v)
Method: (A) Growth inhibition of RE700A i PPDR5-HXT7 (IT[PDR]), RE700A Δpdr1 tok1::PPDR5-HXT7, RE700A Δpdr3 tok1::PPDR5-HXT7 and RE700A Δpdr1,pdr3 tok1::PPDR5-HXT7 at increasing 2-DG concentrations. RE700A i PPDR5-HXT7 (IT[PDR]), RE700A Δpdr1 tok1::PPDR5-HXT7, RE700A Δpdr3 tok1::PPDR5-HXT7 and RE700A Δpdr1,pdr3 tok1::PPDR5-HXT7 were incubated 20 h at 28° C. with Maltose (2% (w/v)) as the sole carbon source and 2-DG concentrations as indicated. The optical density was measured at 600 nm every 15 minutes and the integral under the growth curve was calculated. Inhibition of growth caused by 2-DG is shown in percent. The growth of the strain RE700A tok1::PPDR5-HXT7 (IT[PDR]) was inhibited by 50% at 0.02% (w/v) 2-DG. Growth of the strains RE700A Δpdr1 tok1::PPDR5-HXT7 and RE700A Δpdr3 tok1::PPDR5-HXT7 was inhibited by 50% at 0.026% (w/v) 2-DG.
All strains expressing HXT7 were tested for sensitivity to 2-DG. The strains expressing GFP under the control of PPDR5 were additionally analysed for GFP fluorescence in comparison to RE700Ae PPDR5-GFP (strain CQ[PDR]).

[3] = tested on: RE700A i PCDR2-HXT7 (IT[CDR2]); experiment: Growth inhibition of IT[CDR2] by 2-DG; conditions: 20 h 28° C., maltose, regarding growth in the absence of 2-DG
Method: FIG. 8: Growth inhibition of RE700A and IT[CDR2] by 2-DG. RE700A and IT[CDR2] were incubated for 20 h at 28° C. with maltose (2% (w/v)) as the sole carbon source and increasing 2-DG concentrations as indicated. The optical density was measured at 600 nm every 15 minutes and the integral under the growth curve was calculated. Inhibition of growth is shown in percent regarding growth in the absence of 2-DG. Growth of IT[CDR2] was inhibited by 30% at a 2-DG concentration of 0.1% (w/v), by 79% at a 2-DG concentration of 1% (w/v), by 89% at a 2-DG concentration of 2% (w/v), by 91% at a 2-DG concentration of 3% (w/v).
(4) Integrated screening system for inhibitors of PCDR2: S. cerevisiae strain RE700A was genetically modified as described in Examples 1 and 2 to yield strain IT[CDR2], chromosomally expressing HXT7 under the control of the promoter of CDR2 (PCDR2) (for the complete genotype see Table 1). The inhibition of growth of IT[CDR2] by 2-DG was tested. The growth of this strain was inhibited by 50% at a 2-DG concentration of 1% (w/v) and by 80% at a 2-DG concentration of 2% (w/v) (FIG. 8).

[4] = tested on: RE700A e PPDR5-HXT7 (ET[PDR]); experiment: Growth inhibition of ET[PDR] by 2-DG; conditions: 20 h 28° C., maltose, in percent of growth of RE700A
Method: (A) RE700A, ECFP and ET[PDR] were incubated 20 h at 28° C. with maltose (2% (w/v)) as the sole carbon source in the presence of the indicated 2-DG concentrations. The optical density was measured at 600 nm every 15 minutes and the integral under the growth curve was calculated. Inhibition of growth of ECFP and ET[PDR] is shown in percent of growth of RE700A. Growth of ECFP was inhibited by 39% at 0.005% (w/v) 2-DG, by 78% at 0.01% (w/v) 2-DG, by 91% at 0.03% (w/v) 2-DG and by 93% at 0.05% (w/v) 2-DG. Growth of ET[PDR] was inhibited by 52% at 0.005% (w/v) 2-DG, by 87% at 0.01% (w/v) 2-DG, by 94% at 0.03% (w/v) 2-DG and by 96% at 0.05% (w/v) 2-DG.
Strain growth: The growth of the strains in liquid medium was determined by measuring the optical density at 600 nm. To obtain growth curves, measurements were performed every 15 min. Alternatively, start and endpoint (after 12-16 h) measurements were carried out.

For `O=CC[C@@H](O)[C@H](O)[C@H](O)CO` [2-DG, 2-deoxy-glucose], the Inhibition of growth ([1]; 0.01% (w/v) 2-DG) was 45%, the Inhibition of growth ([1]; 0.05% (w/v) 2-DG) was 92% and the Inhibition of growth ([1]; 0.1% (w/v) 2-DG) was 92%. The Inhibition of growth ([1]; 1% (w/v) 2-DG) was 94%, the Inhibition of growth ([1]; 2% (w/v) 2-DG) was 95% and the Inhibition of growth ([1]; 3% (w/v) 2-DG) was 95%. For the same compound, the “Growth inhibition / 2-DG sensitivity” value [2] was “did not show significant 2-DG sensitivity; also recorded: not significantly inhibited”, the Inhibition of growth ([3]; 0.1% (w/v) 2-DG) was 30% and the Inhibition of growth ([3]; 3% (w/v) 2-DG) was 91%. The Inhibition of growth ([4]; 0.005% (w/v) 2-DG) was 52%, the Inhibition of growth ([4]; 0.01% (w/v) 2-DG) was 87% and the Inhibition of growth ([4]; 0.03% (w/v) 2-DG) was 94%. It also gave an Inhibition of growth ([4]; 0.05% (w/v) 2-DG) of 96%.

From patent publication US9121026B2 (priority 2004, dated 2015)
